According to patent US4089946A, “Claudogenic-interceptive nonapeptides” (American Home Products Corporation, priority 1976, dated 1978):

Legend:
[1] = system: Proestrous female Sprague-Dawley rats (ovulation, ova in fallopian tubes); assay: Ovulation induction in Nembutal-blocked proestrous rats; assay type: in vivo, rat
Method: The ovulation-induction properties of the nonapeptides of this invention was determined with the preferred compound, [D-Trp^6,(N-methyl)Leu^7,des-Gly-NH2^10,Pro-ethylamide]LRH as follows: Proestrous female Sprague-Dawley rats were injected intraperitoneally with a hypnotic dose of Nembutal® (50 mg/kg) at 1:30 PM. Between 1:40 and 1:50 PM the rats received the test material via the jugular vein. The following morning the animals were sacraficed and the fallopian tubes examined for ova under a dissecting microscope. […] Thus, in its ovulation induction, the preferred compound of this invention is about ten times as active as its closest structural analogues.

[2] = system: Mature, female, Sprague-Dawley rats (pregnancy: uterine implantation sites and fetuses); assay: Anti-gravidity (claudogenic/interceptive, post-coital) evaluation in pregnant rats; assay type: in vivo, rat
Excerpt: The procedure followed in evaluating the anti-gravidity properties of the nonapeptides of this invention was as follows: Mature, female, Sprague-Dawley rats (350 + 30 grams body weight) maintained on a 14:10 light:dark schedule were caged with fertile male rats on the evening of proestrus. The presence of vaginal sperm the next morning was considered day 1 of pregnancy. The nonapeptide ethylamine produced in the following examples, representative of the entire group of compounds of this invention, was administered subcutaneously in a corn oil vehicle on days 1-7, or 7-12 of pregnancy at a rate of as low as 1 μg/rat/day. One-half the daily dose was administered at 9 A.M. and at 3 P.M. each day. The recipients of day 1-7 treatment were autopsied on day 14. The recipients of day 7-12 treatment were autopsied on day 18 of pregnancy. The effectiveness of the ethylamide and its effective dose was established by the absence of uterine implantation sites and fetuses. The presence of at least one normal fetus was considered to be the criterion for pregnancy. […]

| Compound | rats showing ovulation inducing activity ([1]; 0.1 mg per rat via the jugular vein) [%] | ovulation induction activity relative to closest structural analogues ([1]; rat, in vivo) | effectiveness of treatment (absence of uterine implantation sites and fetuses) ([2]; 1 microgram per rat per day subcutaneously in corn oil, day 1-7 of pregnancy, five rat sample, autopsy day 14) [%] | effectiveness of treatment (absence of uterine implantation sites and fetuses) ([2]; 10 micrograms per rat per day subcutaneously in corn oil, day 7-12 of pregnancy, autopsy day 18) [%] | dose required to obtain 100 percent ovulation ([1]; via the jugular vein) |
| --- | --- | --- | --- | --- | --- |
| CCNC(=O)[C@@H]1CCCN1C(=O)[C@H](CCCNC(=N)N)NC(=O)[C@H](CC(C)C)N(C)C(=O)[C@@H](Cc1c[nH]c2ccccc12)NC(=O)[C@H](Cc1ccc(O)cc1)NC(=O)[C@H](CO)NC(=O)[C@H](Cc1c[nH]c2ccccc12)NC(=O)[C@H](Cc1c[nH]cn1)NC(=O)[C@@H]1CCC(=O)N1 [L-pyroglutamyl-L-histidyl-L-tryptophyl-L-seryl-L-tyrosyl-D-tryptophyl-N-methyl-L-leucyl-L-arginyl-L-prolinethylamide] | 100 | about ten | 100 | 100 |  |
| LRH: LRH itself, the parent hormone used as comparison for ovulation induction (QHWSYGLRPG; Gonadoliberin-1; UniProt P01148 24-33, looked up) [reference compound] |  |  |  |  | about 3 mg per rat |
